Assay results taken from patent US20020035061A1, “COMPOSITIONS AND METHODS FOR TREATING INFECTIONS USING CATIONIC PEPTIDES ALONE OR IN COMBINATION WITH ANTIBIOTICS” (priority 1996, published 2002).
Read-outs that look alike come from different tables or passages of the source.

Tests used:
[1] = system: S. marcescens; type: cell-based; conditions: for Peptide MIC values: agarose dilution
[2] = system: E. cloacae; type: cell-based; conditions: E. cloacae ECL007
[3] = system: K. pneumoniae; type: cell-based; conditions: K. pneumoniae KP002
[4] = system: S. epidermidis; type: cell-based; conditions: S. epidermidis SE002
[5] = system: A. calcoaceticus; type: cell-based; conditions: A. calcoaceticus AC002
[6] = system: S. aureus; type: cell-based; conditions: for Peptide MIC values: agarose dilution
[7] = system: H. influenzae; experiment: Agarose dilution assay (MIC); type: cell-based; conditions: H. influenzae HIN002
[8] = system: vancomycin / teicoplanin resistant enterococci; experiment: microbe, parasite or virus in culture; type: cell-based; conditions: for Peptide MIC Alone: Vancomycin section; for FIC: peptide + Vancomycin
[9] = system: E. coli; type: cell-based; conditions: for Peptide MIC values: agarose dilution
[10] = system: P. aeruginosa; type: cell-based; conditions: for Peptide MIC values: agarose dilution
[11] = system: MSSA (Smith, ATCC # 19640); experiment: In vivo efficacy, MSSA infection; set-up: species or system S. aureus; conditions: formulation D, 60 min post-infection, end of eight day observation
[12] = system: S. maltophilia; type: cell-based; conditions: S. maltophilia SMA002
[13] = system: microorganisms with acquired resistance; experiment: microbe, parasite or virus in culture; type: cell-based; conditions: S. aureus; combination with Mupirocin; in µg/mL
[14] = system: S. pneumoniae; experiment: Agarose dilution assay (MIC); type: cell-based; conditions: for Peptide MIC values: agarose dilution
[15] = system: E. faecalis; type: cell-based; conditions: E. faecalis EFS002
[16] = system: E. faecium; type: cell-based
[17] = system: inherently resistant microorganisms; experiment: microbe, parasite or virus in culture; type: cell-based; conditions: for FIC: peptide + Tobramycin

In the case of ILKKFPFFPFRRK [MBI 11A1CN], the MIC ([1]; S. marcescens SBSM2) is reported as greater than 128 µg/mL, the “Peptide MIC values” ([1]; S. marcescens SM76) is reported as greater than 128 µg/mL and the “Peptide MIC values” ([1]; S. marcescens SM82) is reported as greater than 128 µg/mL. For the same sequence, the MIC [2] was greater than 128 µg/mL, the MIC [3] was greater than 128 µg/mL and the MIC [4] was 16 µg/mL. For the same sequence, the MIC [5] was 16 µg/mL, the MIC ([6]; S. aureus SA005) was 8 µg/mL and the “Peptide MIC values” ([6]; S. aureus ATCC 29213) was 2 µg/mL. The “Peptide MIC values” ([6]; S. aureus MRSA9) was 8 µg/mL, the “Peptide MIC values” ([6]; S. aureus MRSA13) was greater than 128 µg/mL and the “Peptide MIC values” ([6]; S. aureus MRSA17) was 32 µg/mL. For the same sequence, the “Peptide MIC values” ([6]; S. aureus SA206) was 128 µg/mL, the MIC [7] was greater than 128 µg/mL and the “Peptide MIC + Vancomycin” value ([8]; E. faecalis EFS003) was 32 µg/mL. For the same sequence, the “Vancomycin MIC + Peptide” value ([8]; E. faecalis EFS003) was 4 µg/mL, the “Peptide MIC Alone” value ([8]; E. faecalis EFS003) was greater than 128 µg/mL and the “Peptide MIC + Vancomycin” value ([8]; E. faecalis EFS006) was 0.25 µg/mL. The “Vancomycin MIC + Peptide” value ([8]; E. faecalis EFS006) was 4 µg/mL, the “Peptide MIC Alone” value ([8]; E. faecalis EFS006) was 128 µg/mL and the “Peptide MIC + Vancomycin” value ([8]; E. faecalis EFS010) was 8 µg/mL. For the same sequence, the “Vancomycin MIC + Peptide” value ([8]; E. faecalis EFS010) was 1 µg/mL, the “Peptide MIC Alone” value ([8]; E. faecalis EFS010) was 128 µg/mL and the “Peptide MIC + Vancomycin” value ([8]; E. faecalis EFS014) was 2 µg/mL. For the same sequence, the “Vancomycin MIC + Peptide” value ([8]; E. faecalis EFS014) was 1 µg/mL, the “Peptide MIC Alone” value ([8]; E. faecalis EFS014) was 4 µg/mL and the “Peptide MIC + Vancomycin” value ([8]; E. faecium EFM004) was 16 µg/mL. The “Vancomycin MIC + Peptide” value ([8]; E. faecium EFM004) was 0.5 µg/mL, the “Peptide MIC Alone” value ([8]; E. faecium EFM004) was 32 µg/mL and the “Peptide MIC + Vancomycin” value ([8]; E. faecium EFM007) was 16 µg/mL. For the same sequence, the “Vancomycin MIC + Peptide” value ([8]; E. faecium EFM007) was 4 µg/mL, the “Peptide MIC Alone” value ([8]; E. faecium EFM007) was 64 µg/mL and the “Peptide MIC + Vancomycin” value ([8]; E. faecium EFM009) was 8 µg/mL. For the same sequence, the “Vancomycin MIC + Peptide” value ([8]; E. faecium EFM009) was 4 µg/mL, the “Peptide MIC Alone” value ([8]; E. faecium EFM009) was 64 µg/mL and the FIC ([8]; E. faecalis EFS003) was 0.63. It also gave an FIC ([8]; E. faecalis EFS006) of 0.50, an FIC ([8]; E. faecalis EFS010) of 0.13 and an FIC ([8]; E. faecalis EFS014) of 0.51. It also gave an FIC ([8]; E. faecium EFM004) of 0.50, an FIC ([8]; E. faecium EFM007) of 0.28 and an FIC ([8]; E. faecium EFM009) of 0.25. For the same sequence, the MIC ([9]; E. coli ECO002) was 32 µg/mL, the “Peptide MIC values” ([9]; E. coli ATCC 25922) was 128 µg/mL and the “Peptide MIC values” ([9]; E. coli ESS) was 16 µg/mL. For the same sequence, the “Peptide MIC values” ([9]; E. coli NCTC 10418) was 16 µg/mL, the MIC ([10]; P. aeruginosa PA004) was greater than 128 µg/mL and the “Peptide MIC values” ([10]; P. aeruginosa ATCC 27853) was greater than 128 µg/mL. The “Peptide MIC values” ([10]; P. aeruginosa NCTC 10662) was greater than 128 µg/mL, the “% Survival” value ([11]; 12 mg/kg ip) was 0% and the “% Survival” value ([11]; 18 mg/kg ip) was 0%. For the same sequence, the “% Survival” value ([11]; 24 mg/kg ip) was 0%, the MIC [12] was greater than 128 µg/mL and the “Peptide MIC” value [13] was 32. The MIC ([14]; S. pneumoniae SBSPN2) was greater than 128 µg/mL, the “Peptide MIC values” ([14]; S. pneumoniae 406LE8) was greater than 128 µg/mL and the “Peptide MIC values” ([14]; S. pneumoniae 60120) was greater than 128 µg/mL. The “Peptide MIC values” ([14]; S. pneumoniae ATCC 49619) was greater than 128 µg/mL, the MIC [15] was 32 µg/mL and the MIC ([16]; E. faecium EFM002) was 1 µg/mL. The “Peptide MIC values” ([16]; agarose dilution) was 128 µg/mL, the “Peptide MIC + Tobramycin” value ([17]; S. haemolyticus) was 0.125 µg/mL and the “Peptide MIC Alone” value ([17]; S. haemolyticus, Tobramycin section) was 16 µg/mL. The FIC ([17]; S. aureus) was 0.50 and the FIC ([17]; S. haemolyticus) was 0.51.
